Test results as given in ChEMBL document CHEMBL3763040, “3,5-Bis(3-alkylaminomethyl-4-hydroxybenzylidene)-4-piperidones: A Novel Class of Potent Tumor-Selective Cytotoxins” (J Med Chem, 2016).
pIC50: −log10 of the molar value.

What was measured:
[1] = Cytotoxicity against human COLO205 cells after 48 hrs by sulforhodamine B assay; assay type: functional, cell-based; settings: COLO 205, 48 h
[2] = Cytotoxicity against human HCC2998 cells after 48 hrs by sulforhodamine B assay; assay type: functional, cell-based; settings: HCC 2998, 48 h
[3] = Cytotoxicity against human HCT116 cells after 48 hrs by sulforhodamine B assay; assay type: functional, cell-based; settings: HCT-116, 48 h
[4] = Cytotoxicity against human HCT15 cells after 48 hrs by sulforhodamine B assay; assay type: functional, cell-based; settings: HCT-15, 48 h
HT-29 = test: Cytotoxicity against human HT-29 cells after 48 hrs by sulforhodamine B assay; assay type: functional, cell-based; settings: HT-29, 48 h
KM12 = test: Cytotoxicity against human KM12 cells after 48 hrs by sulforhodamine B assay; assay type: functional, cell-based; settings: KM12, 48 h
[5] = Cytotoxicity against human SW620 cells after 48 hrs by sulforhodamine B assay; assay type: functional, cell-based; settings: SW-620, 48 h
[6] = Antiproliferative activity against human Molt4/C8 cells assessed as cell survival after 72 hrs by coulter counter analysis; assay type: functional, cell-based; settings: MOLT-4, 72 h
CCRF-CEM [7] = test: Antiproliferative activity against human CEM cells assessed as cell survival after 72 hrs by coulter counter analysis; assay type: functional, cell-based
L1210 = test: Antiproliferative activity against mouse L1210 cells assessed as cell survival after 48 hrs by coulter counter analysis; assay type: functional, cell-based; settings: L1210, 48 h
[8] = Cytotoxicity against human HSC2 cells assessed as cell death after 48 hrs by MTT assay; assay type: functional; settings: HSC-2, 48 h
[9] = Cytotoxicity against human HSC3 cells assessed as cell death after 48 hrs by MTT assay; assay type: functional; settings: HSC-3, 48 h
[10] = Cytotoxicity against human HSC4 cells assessed as cell death after 48 hrs by MTT assay; assay type: functional; settings: HSC-4, 48 h
[11] = Cytotoxicity against human HL60 cells assessed as cell death after 48 hrs by MTT assay; assay type: functional; settings: HL-60, 48 h
[12] = Cytotoxicity against HGF assessed as cell death after 48 hrs by MTT assay; settings: human, HGF cells
[13] = Cytotoxicity against HPC assessed as cell death after 48 hrs by MTT assay; settings: human, HPC cells
[14] = Cytotoxicity against HPLF assessed as cell death after 48 hrs by MTT assay; settings: human, HPLF cells
HSC-2 = test: Selectivity index, ratio of CC50 for HGF to CC50 for human HSC2 cells; settings: pooled result: one value given for 3 cell lines, strains, targets or settings
HSC-3 = test: Selectivity index, ratio of CC50 for HGF to CC50 for human HSC3 cells; settings: pooled result: one value given for 3 cell lines, strains, targets or settings
HSC-4 = test: Selectivity index, ratio of CC50 for HGF to CC50 for human HSC4 cells; settings: pooled result: one value given for 3 cell lines, strains, targets or settings
HL-60 = test: Selectivity index, ratio of CC50 for HGF to CC50 for human HL60 cells; settings: pooled result: one value given for 3 cell lines, strains, targets or settings
[15] = Potency index, ratio of melphalan IC50 to compound IC50 for antiproliferative activity against human Molt4/C8 cells; assay type: functional, MOLT-4
CCRF-CEM [16] = test: Potency index, ratio of melphalan IC50 to compound IC50 for antiproliferative activity against human CEM cells; assay type: functional

SMILES | pIC50 [6] | pIC50 (CCRF-CEM [7]) | pIC50 (L1210) | CC50 [8] | CC50 [9] | CC50 [10] | CC50 [11] | CC50 at 48 h [12] | CC50 at 48 h [13] | CC50 at 48 h [14] | Selectivity Index (HSC-2) | Selectivity Index (HSC-3) | Selectivity Index (HSC-4) | Selectivity Index (HL-60) | Ratio IC50 [15] | further results
O=c1[nH]cc(F)c(=O)[nH]1 [FLUOROURACIL] | – | – | – | – | – | – | – | – | – | – | – | – | – | – | – | CC50 [1]: > 2510 µM; TGI [1]: > 1860 µM; CC50 [2]: > 2510 µM; TGI [2]: > 1860 µM; CC50 [3]: > 2510 µM; TGI [3]: > 1860 µM; CC50 [4]: > 2510 µM; TGI [4]: > 1860 µM; CC50 (HT-29): > 2510 µM; TGI (HT-29): > 1860 µM; CC50 (KM12): > 2510 µM; TGI (KM12): > 1860 µM; CC50 [5]: > 2510 µM; TGI [5]: > 1860 µM
O=C(/C=C/c1ccc(O)cc1)/C=C/c1ccc(O)cc1 | 5.43 | 5.47 | 5.11 | 5.3 µM | 5.4 µM | 4.9 µM | 3.9 µM | 24 µM | 9.2 µM | 16 µM | 3.09 | 3.04 | 3.35 | 4.21 | – | –
O=C1/C(=C/c2ccc(O)cc2)CCC/C1=C\c1ccc(O)cc1 | 5.97 | 5.16 | 4.97 | 16 µM | 50 µM | 62 µM | 1.9 µM | > 200 µM | > 200 µM | > 200 µM | >12.5 | >4 | >3.23 | >105 | 3.06 | –
N[C@@H](Cc1ccc(N(CCCl)CCCl)cc1)C(=O)O | – | – | – | 8.7 µM | 25 µM | 32 µM | 1.4 µM | – | – | – | 24.1 | 8.4 | 6.56 | 150 | – | –
Cl.Cl.Cl.O=C1/C(=C/c2ccc(O)c(CN3CCOCC3)c2)CNC/C1=C\c1ccc(O)c(CN2CCOCC2)c1 | 5.80 | 5.78 | 5.11 | 0.6 µM | 1 µM | 1.1 µM | 0.71 µM | 3.7 µM | 3.4 µM | 3.8 µM | 6.05 | 3.63 | 3.3 | 5.11 | 2.03 | Ratio IC50 (CCRF-CEM [16]): 1.48
